Read-outs that look alike come from different tables or passages of the source.
What was measured:
[1] = tested on: PC-3M prostate cancer cells; experiment: Lipidome alterations after short-term pharmacological inhibition of UGCG in PC-3M cells; assay type: cell-based, human; conditions: 6 hr, 128 μM Eliglustat, 64 μM PDMP, 64 μM PPMP
From the text: (§1) FIGS. 16A, 16B, and 16C show (16A) the induction of autophagy/mitophagy by exposure of PC-3M prostate cancer cells to Eliglustat. (i) cytotoxicity (ii) apoptosis at 4 hrs (iii) apoptosis at 24 hrs. N=3 biologically independent replicates per experimental condition. Values represent log(relative fluorescence units)±StDev. Also shown are volcano plots illustrating differences in annotated lipid species stratified by lipid domains in (16B) PC-3M and (16C) RM-9 prostate cancer cells following 6 hr challenge with 128 μM Eliglustat. (i) acylcarnitines (ii) cardiolipins (iii) diacylglycerols (iv) ether lysophospholipids (v) ether phospholipids (vi) lysophospholipids (vii) phospholipids (viii) cholesterol esters (ix) triacylglycerols (x) sphingomyelins. N=3 biologically independent replicates per experimental condition.
(§2) Sample Extraction Following transfections, cell lysates were washed 2× with pre-chilled 0.9% NaCl followed by addition of 2.5 mL of pre-chilled 3:1 isopropanol:ultrapure water. Cells were scraped using a 25 cm Cell Scraper (Sarstedt) in extraction solvent and transferred to a 15 mL conical tube (Eppendorf). Samples were briefly vortexed followed by centrifugation at 4° C. for 10 min at 2,000×g. Thereafter, 1.2 mL of metabolite extracts were transferred to 1.5 mL Eppendorf tubes and stored in −20° C. until metabolomic analysis.
(§3) Complex Lipids Pre-aliquoted EDTA plasma samples (10 μL) were extracted with 30 μL of LCMS grade 2-propanol (ThermoFisher) in a 96-well microplate (Eppendorf). Plates were heat sealed, vortexed for 5 min at 750 rpm, and centrifuged at 2000×g for 10 minutes at room temperature. The supernatant (10 μL) was carefully transferred to a 96-well plate, leaving behind the precipitated protein. The supernatant was further diluted with 90 μL of 1:3:2 100 mM ammonium formate, pH 3 (ThermoFisher): acetonitrile: 2-propanol and transferred to a 384-well microplate (Eppendorf) for lipids analysis using LCMS. […]

[2] = tested on: RM-9 prostate cancer cells; experiment: Lipidome alterations after short-term pharmacological inhibition of UGCG in RM-9 cells; assay type: cell-based, mouse; conditions: 6 hr, 128 μM Eliglustat, 64 μM PDMP, 64 μM PPMP
From the text: as §1, §2, §3

[3] = tested on: PC-3M prostate cancer cells
Description: (§4) Horizontal axis=log(M); vertical axis=% viability relative to control. […] (i) vehicle (ii) 128 μM Eliglustat (iii) 64 μM PDMP (iv) 64 μM PPMP. Statistical significance was determined by 2-sided student t-test comparing the aggregate intensities of individual lipid species corresponding to the respective lipid domain.
(§5) To test this hypothesis, the efficacy of PDMP, PPMP and eliglustat three different inhibitors of glucosylceramide synthase (also known as UGCG; UDP-glucose:ceramide glucosyltransferase), a rate-limiting enzyme in glycosphingolipid metabolism, for reducing viability of RM-9 and PC-3M prostate cancer cells in vitro was then evaluated.

[4] = tested on: RM-9 prostate cancer cells
Description: as §4, §5

PC-3M cells [5] = experiment: Viability (MTS assay) of PC-3M cells treated with eliglustat after CAV1 knockdown or Cav-1 blocking antibody; assay type: cell-based, human; conditions: 128 μM eliglustat
Description: (§6) FIGS. 18A and 18B show (18A) the viability (MTS assay) of PC-3M cells treated with 128 μM eliglustat after (left) knockdown of CAV1: or (right) following pre-treatment with Cav-1 monoclonal blocking antibody: (i) siCtrl (ii) siCAV1-1 (iii) siCAV1-2 (iv) IgG=vehicle (v) IgG+Eliglustat (vi) abCAV1+Vehicle (vii) abCAV1+Eliglustat. (18B) Viability (MTS assay) of LNCaP cells treated with 64 μM eliglustat following Cav-1 overexpression.

RM-9 tumors = experiment: RM-9-luciferase subcutaneous tumor model in C57BL/6N mice; assay type: in vivo, mouse
Description: FIGS. 19A, 19B, 19C, and 19D show the efficacy of eliglustat in an in vivo mouse model. (19A) Relative fluorescence units±SEM of RM-9 tumors following daily intraperitoneal injection with either (i) saline (n=23) or (ii) eliglustat (60 mg/kg) (n=9). (19B) Tumor Volume±SEM following treatment with either saline (n=15) or eliglustat (60 mg/kg) (n=8). Statistical significance was determined by 2-sided Wilcoxon-rank sum test. (19C) Representative IVIS images following treatment. (19D) Relative abundance (area units±StDev) of glycosphinoglipids in RM-9 tumors following treatment.
FIGS. 20A, 20B, 20C, 20D, 20E, and 20F show quantitative analyses derived from immunohistochemistry staining for (20A) Cav-1, (20B) BrdU-TUNEL, (20C) PCNA, (20D) HMGB1 and (20E) LC3B in RM-9 tumors following treatment with either saline (n=6-8 mice) or eliglustat (n=7 mice). Vertical axes are (20A) Cav-1 staining score, (20B) apoptotic bodies/fd, (20C) % of PCNA labeling, (20D) % of cytoplasmic HMGB1, and (20E) LC-3B positive cells/fd. Statistical significance was determined by 2-sided Wilcoxon rank sum test. Also shown is (20F) volcano plot illustrating fold change in individual annotated lipid species stratified by lipid domain in plasma of RM-9 bearing C57BL/6N mice or control mice. (i) acylcarnitines (ii) ceramides (iii) cholesterol esters (iv) diacylglycerols (v) free fatty acids (vi) glycosphingolipids (vii) lysophospholipids (viii) oxylipins (ix) phospholipids (x) sphingomyelins (x) triacylglycerols.
Inhibition of tumor growth by eliglustat was next examined. RM-9 cells harbor driver oncogenic RAS and MYC genes which model RAS-MAPK pathway activation and MYC-driven transcriptional activities which are associated with aggressive primary prostate cancer. RM-9-luciferase cells were subcutaneously implanted into C57BL/6N mice. RM-9 tumor growth was suppressed by eliglustat (FIGS. 19A, 19B, and 19C). […] In addition, plasma Cav-1 levels tended to be elevated in RM-9 tumor-bearing mice compared to control mice.

[6] = tested on: PC-3M prostate cancer cells; experiment: Cytotoxicity and apoptosis of PC-3M cells exposed to eliglustat; assay type: cell-based
Description: as §5

LNCaP cells = experiment: Viability (MTS assay) of LNCaP cells treated with eliglustat following Cav-1 overexpression; assay type: cell-based, human; conditions: 64 μM eliglustat
Description: as §6

PC-3M cells [7] = experiment: Mitophagy markers and mitochondrial morphology in PC-3M cells treated with eliglustat; assay type: cell-based, human
Description: FIGS. 17A, 17B, 17C, and 17D show representative confocal microscopy images for PC-3M cells following 24 hr pre-transfection with (i) CellLight Mitochondria-RFP (leader sequence of E1 alpha pyruvate dehydrogenase) or (ii) CellLight Lysosome-GFP (lysosomal associated 1052 membrane protein 1) followed by acute (6 hr) treatment with either (17A) vehicle or (17C) Eliglustat (128 μM). (17B) and (17D) correspond to enlargements of features from (17A) and (17C), respectively. (iii) merged images.

[8] = immunohistochemistry, RM-9 tumors

Compound: CCCCCCCCCC(=O)NC(CN1CCOCC1)C(O)c1ccccc1 (stereo not shown) [PDMP, 1-phenyl-2-decanoylamino-3-morpholino-1-propanol]
- alterations in the lipidome [1]: accumulation of intracellular ceramides, acylcarnitines, lysophospholipids and diacylglycerols and reductions in glycosphingolipids, phospholipids and triacylglycerols
- alterations in the lipidome [2]: accumulation of intracellular ceramides, acylcarnitines, lysophospholipids and diacylglycerols and reductions in glycosphingolipids, phospholipids and triacylglycerols
- cytotoxicity (viability relative to control) [3]: dose-dependent cytotoxicity
- cytotoxicity (viability relative to control) [4]: dose-dependent cytotoxicity

Compound: CCCCCCCCCCCCCCCC(=O)N[C@H](CN1CCOCC1)[C@H](O)c1ccccc1 [PPMP, D-threo-1-phenyl-2-hexadecanoylamino-3-morpholino-1-propanol]
- alterations in the lipidome [1]: accumulation of intracellular ceramides, acylcarnitines, lysophospholipids and diacylglycerols and reductions in glycosphingolipids, phospholipids and triacylglycerols
- alterations in the lipidome [2]: accumulation of intracellular ceramides, acylcarnitines, lysophospholipids and diacylglycerols and reductions in glycosphingolipids, phospholipids and triacylglycerols
- cytotoxicity (viability relative to control) [3]: dose-dependent cytotoxicity
- cytotoxicity (viability relative to control) [4]: dose-dependent cytotoxicity

Compound: CCCCCCCC(=O)N[C@H](CN1CCCC1)[C@H](O)c1ccc2c(c1)OCCO2 [eliglustat]
- sensitivity to eliglustat (viability, MTS) after knockdown of CAV1 (PC-3M cells [5]): further sensitized
- alterations in the lipidome [1]: accumulation of intracellular ceramides, acylcarnitines, lysophospholipids and diacylglycerols and reductions in glycosphingolipids, phospholipids and triacylglycerols
- RM-9 tumor growth (RM-9 tumors; C57BL/6N mice, 60 mg/kg daily intraperitoneal injection): suppressed
- glycosphingolipids in RM-9 tumor tissue (RM-9 tumors; C57BL/6N mice, 60 mg/kg, metabolomics of tumor tissue): reductions in glycosphingolipids
- BrdU-TUNEL staining in tumor tissue (RM-9 tumors; [8]): statistically significantly increased
- Cav-1 staining in tumor tissue (RM-9 tumors; [8]): statistically significantly reduced
- HMGB1 staining in tumor tissue (RM-9 tumors; [8]): statistically significantly increased
- LC3B staining in tumor tissue (RM-9 tumors; [8]): statistically significantly increased
- PCNA staining in tumor tissue (RM-9 tumors; [8]): statistically significantly reduced
- mechanism of acute cytotoxic effects (cytotoxicity, apoptosis at 4 hrs and 24 hrs) [6]: non-apoptotic mechanism
- alterations in the lipidome [2]: accumulation of intracellular ceramides, acylcarnitines, lysophospholipids and diacylglycerols and reductions in glycosphingolipids, phospholipids and triacylglycerols
- anti-cancer effect (viability, MTS) following Cav-1 overexpression (LNCaP cells): reduced the anti-cancer effects
- protein expression of mitophagy-associated marker LC3B-II (PC-3M cells [7]): increased
- protein expression of Parkin and PINK1 (PC-3M cells [7]; acute (6 hr) treatment): increased
- mitochondrial morphology (PC-3M cells [7]; acute (6 hr) treatment, 128 μM): loss of the branched, fused-like-mitochondrial architecture and accumulation of punctate mitochondria co-localized with the lysosome
- cytotoxicity (viability relative to control) ([3]; PC-3M cells, 48 hour treatment): dose-dependent cytotoxicity
- cytotoxicity (viability relative to control) ([4]; RM-9 cells, 48 hour treatment): dose-dependent cytotoxicity
